Like-named read-outs stand apart in the source and are kept apart here.

As usually defined, the IC50 is the concentration needed to halve the response being measured.

For experiment [1], the system named is SOCE in human Jurkat T cells. The experiment in a line: cells. Type of experiment: cell-based. On the procedure:
Jurkat T-lymphocytes, primary human CD4^+ T cells and H1299 cells were pelleted at 450 ×g for 5 min, rat TMBP at 300 ×g for 8 min at room temperature and were resuspended in 1 ml of either standard JMP medium (Jurkat, H1299 and human CD4^+ T cells) or standard DMEM based medium containing 10% fetal bovine serum (FBS) (v/v) (TMBP cells). Resting TMBP cells (day 5–7 after re-stimulation) after the second to fifth re-stimulation were thawed from liquid nitrogen 12 to 40 h prior to Fura2-loading. After pre-incubation for 5 min at 37 °C, cells were incubated with 4 μM Fura2-AM for 15 min at 37 °C. After addition of the dye, cells were kept in the dark. Afterwards, cells and the dye were diluted by addition of 4 ml standard medium and incubated for another 15 min. Cells were washed twice in Ca^2+ buffer (140 mM NaCl, 5 mM KCl, 1 mM MgSO4, 1 mM CaCl2, 1 mM NaH2PO4, 20 mM HEPES, 5.5 mM glucose; pH 7.4 (NaOH), sterile filtered) and were diluted to a concentration of 2*10^6 cells/ml. Subsequently, cells were kept at room temperature for 20 min for de-esterification before the start of the first measurement.
In experiments using a Ca^2+ free/Ca^2+ re-addition protocol, cells were pelleted as described for Fura2 loading and Ca^2+ buffer was exchanged by 1 ml nominal Ca^2+ free buffer (140 mM NaCl, 5 mM KCl, 1 mM MgSO4, 1 mM NaH2PO4, 20 mM HEPES, 5.5 mM glucose; pH 7.4 (NaOH), sterile filtered) immediately before starting the measurement. The measurement was controlled by FL Solutions (Version 4.1, Hitachi High-Technologies Corporation). Fura2 was alternatively excited every 2 s at 340 ± 5 nm and 380 ± 5 nm, each 400 ms apart.
Finally, every measurement was calibrated using 0.1% (v/v) Triton X-100 to obtain a maximal ratio and 4 mM EGTA and 30 mM Tris to obtain a minimal ratio.
R is the ratio between F340 and F380. Rmin and Rmax are the minimal and maximal ratio, respectively, obtained by calibration. F380 min and F380 max are the minimal and maximal fluorescence intensity at 380 nm EX during the calibration. Finally, artefacts due to compound additions that usually could easily be identified and lasted about 8 s were deleted from the tracings using FL Solutions (Version 4.1, Hitachi High-Technologies Corporation). The fluorescence intensities of deleted data points were interpolated from those just before and after the deleted time points.
Estradiol, 2ME2 and 2ME2 derivatives were dissolved in DMSO at a concentration of 50 mM and stored at −20 °C for up to 6 months. For concentration-response curves, stock solution was freshly diluted with DMSO to obtain the same DMSO concentration of 0.2% (v/v) for all conditions.
The compound concentrations were then log transformed. Finally, the data were fitted to a corresponding nonlinear fit of variable slope using Prism 6 (GraphPad Software, USA).

The next experiment concerns SERCA pumps. The experiment can be described thus: SERCA activity (ATP-induced Ca2+ reuptake) in permeabilized Jurkat T cells. Format: cell-based, human. On the procedure:
(§1) 3 ∗ 10^7 Jurkat T-lymphocytes per measurement were centrifuged at 450 ×g for 5 min at room temperature. The pellet was rinsed twice, each time using 10 ml permeabilization buffer 1 (120 mM KCl, 10 mM NaCl, 1.2 mM MgCl2, 0.533 mM CaCl2, 1 mM EGTA and 10 mM HEPES, pH 7.2 (KOH), sterile filtered). Subsequently, the pellet was resuspended in 2 ml permeabilization buffer 1 containing 80 μg/ml saponin (Fluka) and the cells were incubated for 10 min at 37 °C. Subsequently, the cells were centrifuged at 450 ×g for 5 min at room temperature and the cell pellet was washed once in 10 ml permeabilization buffer 2 (120 mM KCl, 10 mM NaCl, 1.2 mM MgCl2 and 10 mM HEPES, pH 7.2 (KOH), sterile filtered). Finally, the cells were taken up in 1 ml permeabilization buffer 2, placed into a cuvette and measured at the fluorescence spectrophotometer. Before the start of the measurement, 0.5 μl of 1 mM Fura2 free acid (dissolved in pure water, final concentration: 0.5 μM), 5 μl of 5 mg/ml creatinkinase (dissolved in permeabilization buffer 2, final concentration: 25 μg/ml, 20 U/ml, Roche) and 10 μl of 2 M creatin phosphate (dissolved in permeabilization buffer 2, final concentration: 20 mM, Calbiochem) were added. Fura2 was used to measure the Ca^2+ concentration and creatinkinase and creatin phosphate were used as ATP-regenerating system. The measurement was controlled by FL Solutions (Version 4.1, Hitachi High-Technologies Corporation). Fura2 was alternatively excited every 2 s at 340 ± 5 nm and 380 ± 5 nm, each 400 ms apart. Fluorescence intensity was measured at an emission wavelength of 495 ± 5 nm for both excitation wavelengths. […] Ca^2+ concentrations were calculated according to Grynkiewicz et al. as described earlier in Section 2.4.
(§2) As a quantitative read-out for inhibition of IP3 receptors, the peak [Ca^2+] after IP3 addition was subtracted from the mean [Ca^2+] between 25 and 75 s before IP3 addition (dPeak). […] The rate constant K of the fitted data was used as a quantitative read-out for SERCA pump activity and its inhibition.

In another experiment the test system is IP3 receptors. The experiment can be described thus: IP3-evoked Ca2+ release in permeabilized Jurkat T cells. Type of experiment: cell-based, human. The following applies: 2 μM IP3. On the procedure: as §1, §2
The mark [2] stands for this setting: Homo sapiens, Jurkat, Jurkat T cells, Ca2+ free/Ca2+ re-addition protocol, plateau 425-475 s after re-addition of 1 mM Ca2+, read-out: IC50 of SOCE inhibition.
[3] abbreviates: Jurkat T cells, Ca2+ free/Ca2+ re-addition protocol.
Where [4] appears, read: Homo sapiens, Jurkat, read-out: IC50 of SOCE inhibition, Jurkat T cells, Ca2+ free/Ca2+ re-addition protocol, plateau 425-475 s after re-addition of 1 mM Ca2+.
Setting [5] is: Jurkat T cells, Ca2+ free/Ca2+ re-addition protocol, plateau 425-475 s after re-addition of 1 mM Ca2+, read-out: IC50 of SOCE inhibition.

As for `CCc1cc2c(cc1OS(N)(=O)=O)CCC1C2CCC2(C)C(OS(N)(=O)=O)CCC12` (centres unmarked) [STX243], the concentration for half-maximal inhibition (IC50) in experiment [1] (setting [2]) stood at 5200 nM. Further, in experiment [1] (setting [3]), the “concentration giving almost complete inhibition of Ca2+ entry” value was determined as 25 µM. For the same compound, in experiment [1] (Jurkat T cells, SOCE), the “IC50 fold smaller as compared to STX139” value is reported as “approx. 2 fold”.
Consider `COc1cc2c(cc1O)CCC1C2CCC2(C)C(CC#N)CCC12` (centres unmarked) [STX640], for which the half-inhibitory concentration (IC50) in experiment [1] (setting [4]) turned out to be 2100 nM. Besides, in experiment [1] (Jurkat T cells, SOCE), the “fold more potent than the 17β-hydroxyl-compound (2ME2)” value was determined as 10 fold.
For `CCc1cc2c(cc1OS(N)(=O)=O)CCC1C2CCC2(C)C(CC(C)=O)CCC12` (centres unmarked) [STX1307], the values for the IC50 in experiment [1] (setting [2]) and in experiment [1] (setting [5]) were 1100 nM and roughly 1000 nM, respectively.
The matching figures for `CCc1cc2c(cc1OS(N)(=O)=O)CCC1C2CCC2(C)C(C[N+](=O)[O-])CCC12` (centres unmarked) [STX1177]: 1300 nM and roughly 1000 nM.
As for `CCc1cc2c(cc1O)CCC1C2CCC2(C)C(CC#N)CCC12` (centres unmarked) [STX505], the IC50 in experiment [1] (setting [4]) stood at 1700 nM.
For the compound `C/C=C(/C)C(=O)O[C@H]1C(C)=C2[C@H]([C@@H]1OC(=O)CCCCCCC)[C@@](C)(OC(C)=O)C[C@H](OC(=O)CCC)[C@@]1(O)[C@H]2OC(=O)[C@@]1(C)O` [thapsigargin], the “effect on SERCA activity (initial slope of [Ca2+] upon ATP addition)” value in the experiment on SERCA pumps was “almost completely abolished”. Also, in the experiment on IP3 receptors, the “effect on IP3-evoked Ca2+ release” value is recorded as “eliminating effects of IP3”.
As for `C[C@]12CC[C@@H]3c4ccc(O)cc4CC[C@H]3[C@@H]1CC[C@@H]2O` [E2, estradiol], in experiment [1] (setting [2]), the IC50 came out at 55000 nM.
On to `COc1cc2c(cc1OS(N)(=O)=O)CCC1C2CCC2(C)C(O)CCC12` (centres unmarked) [STX68], for which, in experiment [1] (Homo sapiens, Jurkat, read-out: IC50 of SOCE inhibition), the IC50 was determined as 25000 nM.
Consider `CCc1cc2c(cc1O)CCC1C2CCC2(C)C(CC(C)=O)CCC12` (centres unmarked) [STX1306], for which, in experiment [1] (setting [2]), the half-inhibitory concentration (IC50) was determined as 1600 nM.
On the same count and under the same terms, the value for `CCc1cc2c(cc1O)CCC1C2CCC2(C)C(C[N+](=O)[O-])CCC12` (centres unmarked) [STX1175] was 1400 nM.
Consider `COc1cc2c(cc1OS(N)(=O)=O)CCC1C2CCC2(C)C(CC#N)CCC12` (centres unmarked) [STX641], for which the 50% inhibitory concentration (IC50) in experiment [1] (setting [2]) came to 1700 nM. The “fold more potent than the 17β-hydroxyl-compound (2ME2)” value in experiment [1] (Jurkat T cells, SOCE) is recorded as 10 fold.
Turning to `CCc1cc2c(cc1O)CCC1C2CCC2(C)C(O)CCC12` (centres unmarked) [STX139, 2-ethyl-estradiol], in experiment [1] (setting [2]), the IC50 was roughly 12000 nM. In addition, in experiment [1] (setting [3]), the “concentration giving almost complete inhibition of Ca2+ entry” value came out at 50 µM.

The values are drawn from publication PMC8062851, “2-Methoxyestradiol and its derivatives inhibit store-operated Ca^2+ entry in T cells: Identification of a new and potent inhibitor” (Biochimica et Biophysica Acta. Molecular Cell Research, 2021).
